Where two headings read alike, the source gives them in different places.
Key:
UO-31 = experiment: SRB growth screen, renal cancer UO-31; conditions: Homo sapiens, UO-31, 48 h
MOLT-4 = experiment: SRB growth screen, leukemia MOLT-4; conditions: Homo sapiens, MOLT-4, 48 h
HCT-15 = experiment: SRB growth screen, colon cancer HCT-15; conditions: Homo sapiens, HCT-15, 48 h
OVCAR-4 = experiment: SRB growth screen, ovarian cancer OVCAR-4; conditions: Homo sapiens, OVCAR-4, 48 h
SNB-19 = experiment: SRB growth screen, CNS cancer SNB-19; conditions: Homo sapiens, SNB-19, 48 h
UACC-257 = experiment: SRB growth screen, melanoma UACC-257; conditions: Homo sapiens, UACC-257, 48 h
[1] = SRB growth screen, whole cell line panel; type: cell-based; conditions: mean over cell lines
Description: The screening assay is performed on 96-well microtitre plates. […] Duplicate wells are prepared for all concentrations; "time-zero" and "nodrug" controls are also provided for each test. […] One hundred microliters of SRB solution (0.4% w/v in 1% acetic acid) is added to each microtitre well and incubated for 10 minutes at room temperature.
The response parameters GI50 and LC50 are interpolated values representing the concentrations at which the percentage growth (PG) is +50 and -50 respectively:
GI50 is the concentration for which the PG=+50.
TGI is the concentration for which PG=0.
LC50 is the concentration for which the PG=-50. […] This is interpreted as cytotoxicity.
The data represented in Table I is graphically represented in FIGS. 1a and 1b through FIGS. 9a and 9b. […] The following is an example of how the information in Table I and in the Figures is interpreted.

NCI-H522 = conditions: Homo sapiens, NCI-H522, 48 h
OVCAR-3 = experiment: SRB growth screen, ovarian cancer OVCAR-3; conditions: Homo sapiens, OVCAR-3, 48 h
OVCAR-5 = experiment: SRB growth screen, ovarian cancer OVCAR-5; conditions: Homo sapiens, OVCAR-5, 48 h
KM12 = experiment: SRB growth screen, colon cancer KM12; conditions: Homo sapiens, KM12, 48 h
CCRF-CEM = experiment: SRB growth screen, leukemia CCRF-CEM; conditions: Homo sapiens
T-47D = experiment: SRB growth screen, breast cancer T-47D; conditions: Homo sapiens, T47D, 48 h
SW-620 = experiment: SRB growth screen, colon cancer SW-620; conditions: Homo sapiens, SW-620, 48 h
A498 = experiment: SRB growth screen, renal cancer A498; conditions: Homo sapiens, A498, 48 h, read-out: Log10 LC50 (converted)
MDA-MB-231/ATCC = experiment: SRB growth screen, breast cancer MDA-MB-231/ATCC; conditions: Homo sapiens, MDA-MB-231, 48 h
786-0 = experiment: SRB growth screen, renal cancer 786-0; conditions: Homo sapiens, 786-0, 48 h
RPMI-8226 = experiment: SRB growth screen, leukemia RPMI-8226; conditions: Homo sapiens, RPMI-8226, 48 h
OVCAR-8 = experiment: SRB growth screen, ovarian cancer OVCAR-8; conditions: Homo sapiens, OVCAR-8, 48 h
TK-10 = experiment: SRB growth screen, renal cancer TK-10; conditions: Homo sapiens, TK-10, 48 h
[2] = read-out: Log10 LC50 (converted)
[3] = read-out: Log10 GI50 (converted)

SMILES: CC(=O)O[C@H]1C(=O)[C@@]2(C)[C@H]([C@H](OC(=O)c3ccccc3)[C@]3(O)C[C@H](OC(=O)[C@H](O)[C@@H](NC(=O)c4ccccc4)c4ccccc4)C(C)=C1C3(C)C)[C@]1(OC(C)=O)CO[C@@H]1C[C@@H]2O [Paclitaxel, paclitaxel, reference compound]
- CC50 (UO-31; [2]): > 100 µM
- IC (TGI) (UO-31; read-out: Log10 TGI): 51.3 µM
- CC50 (MOLT-4; [2]): > 100 µM
- IC (TGI) (MOLT-4; read-out: Log10 TGI): > 100 µM
- GI50 (HCT-15; [3]): 0.427 µM
- CC50 (HCT-15; [2]): > 100 µM
- IC (TGI) (HCT-15; read-out: Log10 TGI): > 100 µM
- GI50 (OVCAR-4; [3]): 10 µM
- CC50 (OVCAR-4; [2]): > 100 µM
- IC (TGI) (OVCAR-4; read-out: Log10 TGI): 64.6 µM
- CC50 (SNB-19; [2]): > 100 µM
- IC (TGI) (SNB-19; read-out: Log10 TGI): > 100 µM
- CC50 (UACC-257; [2]): 93.3 µM
- IC (TGI) (UACC-257; read-out: Log10 TGI): 30.2 µM
- CC50 ([1]; Homo sapiens, read-out: Log10 LC50, Mean (converted)): 87.1 µM
- GI50 ([1]; read-out: Log10 GI50, Mean (converted)): 0.0708 nM
- IC (TGI) ([1]; read-out: Log10 TGI, Mean (converted)): 28.8 µM
- GI50 (NCI-H522; [3]): < 0.1 pM
- CC50 (NCI-H522; [2]): > 100 µM
- IC (TGI) (NCI-H522; read-out: Log10 TGI): 6.31 pM
- CC50 (OVCAR-3; [2]): > 100 µM
- IC (TGI) (OVCAR-3; read-out: Log10 TGI): 28.2 µM
- CC50 (OVCAR-5; [2]): > 100 µM
- IC (TGI) (OVCAR-5; read-out: Log10 TGI): 12 µM
- CC50 (KM12; [2]): > 100 µM
- IC (TGI) (KM12; read-out: Log10 TGI): 43.7 µM
- CC50 (CCRF-CEM; 48 h, read-out: Log10 LC50 (converted)): > 100 µM
- IC (TGI) (CCRF-CEM; 48 h, read-out: Log10 TGI): > 100 µM
- IC50 (CCRF-CEM; read-out: concentration at which primary growth inhibition occurs (PG +50)): 2.45 pM
- IC (TGI) (CCRF-CEM; read-out: concentration considered cytostasis (percentage growth 0)): > 100 µM
- IC50 (CCRF-CEM; read-out: concentration necessary to achieve primary growth inhibition (PG +50)): < 10000 pM
- CC50 (CCRF-CEM; read-out: cytotoxicity concentration (percentage growth -50)): > 100 µM
- GI50 (T-47D; [3]): 0.000155 µM
- CC50 (T-47D; [2]): > 100 µM
- CC50 (SW-620; [2]): > 100 µM
- IC (TGI) (SW-620; read-out: Log10 TGI): > 100 µM
- CC50 (A498): 74.1 µM
- CC50 (MDA-MB-231/ATCC; [2]): 51.3 µM
- IC (TGI) (MDA-MB-231/ATCC; read-out: Log10 TGI): 14.5 µM
- CC50 (786-0; [2]): > 100 µM
- IC (TGI) (786-0; read-out: Log10 TGI): > 100 µM
- GI50 (RPMI-8226; [3]): < 0.1 pM
- CC50 (RPMI-8226; [2]): > 100 µM
- IC (TGI) (RPMI-8226; read-out: Log10 TGI): > 100 µM
- GI50 (OVCAR-8; [3]): 0.0178 nM
- CC50 (OVCAR-8; [2]): > 100 µM
- CC50 (TK-10; [2]): > 100 µM
- IC (TGI) (TK-10; read-out: Log10 TGI): > 100 µM

Reference: patent publication US5892063A (Hauser, Inc., priority 1997, dated 1999)
